Measured values reported in paper PMC5896266, “Development of Matrix Metalloproteinase-2 Inhibitors for Cardioprotection” (Frontiers in Pharmacology, 2018).
Like-named read-outs stand apart in the source and are kept apart here.

What was measured:
[1] = test system: MMP-2; details: Figure 1, known MMP-2 inhibitors; cited from earlier work
[2] = biological target: T1, MMP-1 (Homo sapiens, UniProt P03956); details: Figure 1, known MMP-2 inhibitors; cited from earlier work
T1 sequence (P03956 100-469): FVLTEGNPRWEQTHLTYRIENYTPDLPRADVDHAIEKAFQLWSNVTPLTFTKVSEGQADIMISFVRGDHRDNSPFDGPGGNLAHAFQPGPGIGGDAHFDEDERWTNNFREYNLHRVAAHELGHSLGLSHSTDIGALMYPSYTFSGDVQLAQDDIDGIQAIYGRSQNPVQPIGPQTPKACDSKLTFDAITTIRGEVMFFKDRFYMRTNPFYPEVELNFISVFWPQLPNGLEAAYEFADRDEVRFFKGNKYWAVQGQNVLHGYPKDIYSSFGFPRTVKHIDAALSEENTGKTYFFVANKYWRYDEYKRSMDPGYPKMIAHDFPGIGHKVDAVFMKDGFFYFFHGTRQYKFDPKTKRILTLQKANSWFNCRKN

[3] = biological target: T2, Human MMP-2 catalytic domain (Homo sapiens, UniProt P08253, DEL222-396); experiment: Fluorometric MMP-2 inhibition assay (MTS), catalytic domain; format: biochemical
T2 construct: Human MMP-2 catalytic domain (residues 110-221, 397-455); made in house
T2 sequence (P08253 with tags, fused parts or gaps DEL222-396 limits assumed): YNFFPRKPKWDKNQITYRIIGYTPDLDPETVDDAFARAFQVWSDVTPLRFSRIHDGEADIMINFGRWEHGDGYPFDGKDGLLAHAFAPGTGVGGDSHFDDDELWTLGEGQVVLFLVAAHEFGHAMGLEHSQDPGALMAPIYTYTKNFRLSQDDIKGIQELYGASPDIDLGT
Procedure: In vitro MMP-2 activity was then measured, using a fluorometric assay in a 384 well format. Human MMP-2 catalytic domain (residues 110-221, 397-455) (Feng et al., [2000]) was expressed in E. coli in form of inclusion bodies. The protein was refolded and then purified by means of Ni-NTA affinity and anion exchange chromatography. Inhibition assays were carried out in 50 mM Tris, 5 mM CaCl2, 300 mM NaCl, 20 μM ZnSO4, pH = 7.5 buffer. For inhibition studies the catalytic domain of the enzyme was pre-incubated with varying amount of inhibitor for 30 min. […] After 1 h incubation at 37°C the fluorescence was detected using a Wallac 1420 Victor2 microplate reader at 320 nm/405 nm Ex/Em wavelength. As an alternative substrate we also used 5-FAM-Pro-Leu-Gly-Leu-Dap(QXL™ 520)-Ala-Arg-NH2, where the fluorescence was detected at 485 nm/520 nm. For each inhibitor candidate, the percentage of inhibition was determined in duplicate experiments at six inhibitor concentrations, chosen to observe a 5–95% range of inhibition.
Since hydroxamic acids are reported as the primary zinc-binding motif, we intended to select such a library from the AMRI 200,000 member non-exclusive compound repository as a starting point of our drug discovery efforts. Since only a few compounds were available in the repository as hydroxamic acids and the conversion of acids to hydroxamic acids were not applicable to HT parallel synthesis, we decided first to select free acids from the AMRI's compound collection. […] The selected acids were screened in a fluorescent assay using a recombinant human MMP-2 catalytic fragment and a synthetic peptide substrate. […] The hydroxamic acid pairs of the previously measured acids were then tested.

[4] = biological target: MMP-13 (Homo sapiens, UniProt P45452); experiment: MMP-13 inhibition (inhibitory profile); format: biochemical; details: Table 2
Procedure: (§1) The compounds were measured for MMP-1, 2, 9, 13 to determine their inhibitory profile. Efficiency Index amplifies the two major required effects, selectivity against MMP-1 and the inhibitory activity.

[5] = biological target: T3, MMP-2 enzyme isolated from rat heart (Rattus norvegicus, UniProt P33436); experiment: Gelatin zymography on cardiac MMP-2; format: biochemical; details: for inhibition at 100 µM: cardiac MMP-2, gelatin zymography, read-out: Inhibition (%)±SEM at 100 μM final MMP inhibitor concentration; for EC50: concentration labelled EC50 in Supplementary Figure 4, doses calculated according to IC doses in vitro
T3 construct: we used full-length, active MMP-2 enzymes isolated from healthy young adult rat hearts; from tissue; host or cells: rat heart homogenate (healthy young adult rats)
T3 sequence (P33436 110-662): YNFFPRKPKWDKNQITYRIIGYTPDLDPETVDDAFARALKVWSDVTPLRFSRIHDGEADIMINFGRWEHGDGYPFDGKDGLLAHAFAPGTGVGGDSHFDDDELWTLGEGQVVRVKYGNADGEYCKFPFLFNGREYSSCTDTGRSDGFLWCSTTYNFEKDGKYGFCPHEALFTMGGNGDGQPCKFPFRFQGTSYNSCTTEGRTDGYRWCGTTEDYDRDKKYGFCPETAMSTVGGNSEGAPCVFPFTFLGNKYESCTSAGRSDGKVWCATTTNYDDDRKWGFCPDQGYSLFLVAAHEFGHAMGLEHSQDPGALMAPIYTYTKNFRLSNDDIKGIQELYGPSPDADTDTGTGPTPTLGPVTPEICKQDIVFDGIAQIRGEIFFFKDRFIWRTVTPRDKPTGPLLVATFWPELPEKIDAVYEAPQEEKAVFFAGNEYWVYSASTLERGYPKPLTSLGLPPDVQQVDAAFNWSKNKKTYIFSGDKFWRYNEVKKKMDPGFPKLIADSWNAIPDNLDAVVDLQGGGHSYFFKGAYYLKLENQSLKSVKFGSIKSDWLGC
Procedure: Gelatin zymography was performed as described previously (Kupai et al., [2010]; Bencsik et al., [2017]). MMP-2 was isolated from rat heart homogenates as follows: 50 μg protein/lane were loaded and separated by electrophoresis under non-reducing conditions on an 8% SDS-polyacrylamide gels copolymerized with 2 mg/ml gelatin from porcine skin (Sigma-Aldrich; St. Louis, MO). After electrophoresis, gels were washed in 2.5% Triton-X 100 with gentle agitation and then incubated for 20 h at 37°C in zymography development buffer (50 mM Tris-HCl, pH 7.5, containing 5 mM CaCl2, 200 mM NaCl) in the presence or abscence of the MMP inhibitor compounds. Zymographic gels were stained in a 0.05% Coomassie Brilliant Blue R-250 solution followed by destaining, and then zymograms were scanned. MMP activity was detected as a colorless transparent zone on a blue background and the clear bands in the gel were quantified by densitometry using the Quantity One software (Bio-Rad, Hercules, CA). The obtained density values were measured and percentage of inhibition values were then calculated.
To confirm the MTS screen results, we tested the potential MMP inhibitor molecules on MMP-2 enzyme isolated from rat heart in vitro. Therefore, we applied the MMPIs at 1 and 100 μM final concentration in the enzyme's development buffer (Table 3).
After the chemical optimization of the novel MMP inhibitor lead candidates, we determined their IC50 values by using gelatin zymography. During zymographic analysis, we used full-length, active MMP-2 enzymes isolated from healthy young adult rat hearts. Subsequently, the cardio-cytoprotective effects of the selected candidates having the lowest IC50 values to MMP-2 were tested in cultured neonatal cardiac myocytes subjected to simulated I/R injury. Cardiac myocyte cell culture assay allowed a relatively high throughput biological efficacy testing (Gorbe et al., [2010]) of the selected lead candidates in several dose ranges at different levels of inhibition of MMP-2 activity.

[6] = biological target: T1, MMP-1; experiment: MMP-1 inhibition (inhibitory profile); format: biochemical; details: Table 2
Procedure: as §1

[7] = biological target: MMP-9 (Homo sapiens, UniProt P14780); experiment: MMP-9 inhibition (inhibitory profile); format: biochemical; details: Table 2
MMP-9, sequence (P14780 94-707, species assumed): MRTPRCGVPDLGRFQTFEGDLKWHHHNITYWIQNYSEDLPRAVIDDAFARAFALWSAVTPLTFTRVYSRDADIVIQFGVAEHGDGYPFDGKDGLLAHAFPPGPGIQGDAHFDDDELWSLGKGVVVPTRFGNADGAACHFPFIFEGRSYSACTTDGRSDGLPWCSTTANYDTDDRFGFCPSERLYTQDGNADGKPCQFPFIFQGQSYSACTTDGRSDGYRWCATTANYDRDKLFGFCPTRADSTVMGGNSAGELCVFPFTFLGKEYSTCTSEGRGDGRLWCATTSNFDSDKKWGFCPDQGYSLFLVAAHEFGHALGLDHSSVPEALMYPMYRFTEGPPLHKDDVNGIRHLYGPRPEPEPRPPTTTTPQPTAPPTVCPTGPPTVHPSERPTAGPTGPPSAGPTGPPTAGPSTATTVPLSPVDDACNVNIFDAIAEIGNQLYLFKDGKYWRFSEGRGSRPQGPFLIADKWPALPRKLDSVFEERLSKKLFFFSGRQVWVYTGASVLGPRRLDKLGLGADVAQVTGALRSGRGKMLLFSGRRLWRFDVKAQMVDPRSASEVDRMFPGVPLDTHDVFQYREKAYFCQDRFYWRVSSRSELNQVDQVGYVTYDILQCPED
Procedure: as §1

[8] = Table 1, acids vs hydroxamic acids, catalytic fragment

IC50 [3, 8] [µM] | IC50 [4] [µM] | inhibition at 100 µM [5] [%] | IC50 [6] [µM] | IC50 ([3]; Table 2) [µM] | IC50 [7] [µM] | EC50 [5] [µM] | Compound | IC50 [1] [µM] | IC50 [2] [µM]
 |  |  |  |  |  |  | CC1(C)OCC(C(CS(=O)(=O)c2ccc(Oc3ccc(OC(F)(F)F)cc3)cc2)N(O)C=O)O1 (stereo not drawn) [ABT-518] | 0.0008 | 8.9
12 |  |  |  |  |  |  | O=C(NO)c1csc(CN(Cc2ccc(F)cc2)Cc2ccc(OCc3ccccc3)cc2)n1 [AMRI-101H] |  | 
6.2 |  |  |  |  |  |  | O=C(O)c1csc(CN(Cc2cccc(Cl)c2)Cc2cccc(C(F)(F)F)c2)n1 [AMRI-102A] |  | 
11 |  |  |  |  |  |  | O=C(NO)c1csc(CN(Cc2cccc(Cl)c2)Cc2cccc(C(F)(F)F)c2)n1 [AMRI-102H] |  | 
7.6 |  |  |  |  |  |  | O=C(O)c1csc(CN(CCC(c2ccccc2)c2ccccc2)Cc2ccccc2F)n1 [AMRI-103A] |  | 
17.6 |  |  |  |  |  |  | O=C(NO)c1csc(CN(CCC(c2ccccc2)c2ccccc2)Cc2ccccc2F)n1 [AMRI-103H] |  | 
 | 4.7 | 11.1 ± 1.58 | 6.8 | 25 |  |  | O=C(O)c1csc(CN(Cc2ccc(OCc3ccccc3)cc2)Cc2cccc(F)c2)n1 [MMPI-1133] |  | 
 | 2.6 | 81.1 ± 3.88 | 12 | 20 | 39 |  | O=C(O)C(c1ccccc1)N(Cc1ccc(OCc2ccccc2)cc1)Cc1cccc(F)c1 (stereo not drawn) [MMPI-1140] |  | 
 | 1.76 | 47 ± 19.1 | 26 | 25 | 10 |  | O=C(O)c1csc(CN(Cc2ccc(OCc3ccccc3)cc2)C(c2ccccc2)c2ccccc2)n1 [MMPI-1155] |  | 
3.4 | 1.6 | 100 |  |  | 15 | 18 | O=C(O)c1csc(CN(Cc2ccc(F)cc2)Cc2ccc(OCc3ccccc3)cc2)n1 [MMPI-1157] |  | 
 | 0.28 | 100 | 16 | 35 | 8 |  | O=C(O)c1c[nH]c(CN(Cc2ccc(F)cc2)Cc2ccc(OC(c3ccccc3)c3ccccc3)cc2)n1 [MMPI-1245] |  | 
 | 3.3 | 100 | 33 | 15 | 100 | 16 | Cc1ccc(CN(Cc2ccc(OCc3ccccc3)cc2)Cc2nc(C(=O)O)c[nH]2)cc1 [MMPI-1247] |  | 
 | 1.24 | 100 | 47 | 8 | 8.8 | 9 | O=C(O)c1csc(CN(Cc2ccc(F)cc2)Cc2ccc(OCc3ccncc3)cc2)n1 [MMPI-1248] |  | 
 | 1.5 | 100 | 115 | 54 | ≥ 500 |  | O=C(O)c1csc(CN(Cc2ccncc2)Cc2ccc(OCc3ccccc3)cc2)n1 [MMPI-1252] |  | 
 | 8 | 100 | 240 | 90 | ≥ 500 |  | O=C(O)c1csc(CN(Cc2ccc(OCc3ccccc3)cc2)Cc2cccnc2)n1 [MMPI-1253] |  | 
 | 3 | 100 | 17 | 30 | 20 | 32 | O=C(O)c1csc(CN(Cc2ccc(F)cc2)Cc2ccc(-c3ccccc3)cc2)n1 [MMPI-1254] |  | 
 | 2.5 | 100 | 51 | 5.7 | 37 | 17.7 | O=C(O)c1csc(CN(Cc2ccc(F)cc2)Cc2ccc(OCc3cccnc3)cc2)n1 [MMPI-1260] |  | 
